Results taken from PMC11576293, “New series of 4,6-diaryl pyrimidines: facile synthesis and antiproliferative activity as dual EGFR/VEGFR-2 inhibitors” (Frontiers in Chemistry, 2024).

How the values were obtained:
UACC-62 = test: NCI-60 single-dose screen; assay type: cell-based; conditions: Homo sapiens, single dose 10 µM, '-' = no inhibition, read-out: % Growth Inhibition
Procedure: (§1) The National Cancer Institute’s Developmental Therapeutic Program (www.dtp.nci.nih.gov) has tested compounds 9–29 (except compounds 21 and 22) against 60 cancer cell lines from nine types (leukemia, lung, colon, CNS, melanoma, ovarian, renal, prostate, and breast cancer) at a single dose (10 μM) ([El-Sherief et al., 2018]). […] The most sensitive cells included leukemia (SR, K-562, and MOLT-4), lung (NCI-H522, […], and EKVX), breast (MCF-7 and T-47D), colon (HCT-15 and HT-29), and ovarian (NCI/ADR-RES).
(§2) The National Cancer Institute’s Developmental Therapeutic Program (www.dtp.nci.nih.gov) evaluated compounds 9–29 (excluding 21 and 22) against 60 cancer cell lines from nine categories (leukemia, lung, colon, CNS, melanoma, ovarian, renal, prostate, and breast cancer) at a single dose (10 μM) ([El-Sherief et al., 2018]). See Supplementary Material A1 for more details.

ACHN 1 = test: NCI-60 single-dose screen; assay type: cell-based; conditions: Homo sapiens, single dose 10 µM, '-' = no inhibition, read-out: % Growth Inhibition
Procedure: as §1, §2

HT29 = test: NCI-60 single-dose screen; assay type: cell-based; conditions: Homo sapiens, HT-29, single dose 10 µM, '-' = no inhibition, read-out: % Growth Inhibition
Procedure: as §1, §2

SK-OV-3 = test: NCI-60 single-dose screen; assay type: cell-based; conditions: Homo sapiens, single dose 10 µM, '-' = no inhibition, read-out: % Growth Inhibition
Procedure: as §1, §2

SN12C = test: NCI-60 single-dose screen; assay type: cell-based; conditions: Homo sapiens, single dose 10 µM, '-' = no inhibition, read-out: % Growth Inhibition
Procedure: as §1, §2

UACC-257 = test: NCI-60 single-dose screen; assay type: cell-based; conditions: Homo sapiens, single dose 10 µM, '-' = no inhibition, read-out: % Growth Inhibition
Procedure: as §1, §2

IGROV1 = test: NCI-60 single-dose screen; assay type: cell-based; conditions: Homo sapiens, IGROV-1, single dose 10 µM, '-' = no inhibition, read-out: % Growth Inhibition
Procedure: as §1, §2

CCRF-CEM = test: NCI-60 single-dose screen; assay type: cell-based; conditions: Homo sapiens, single dose 10 µM, '-' = no inhibition, read-out: % Growth Inhibition
Procedure: as §1, §2

SK-MEL-2 = test: NCI-60 single-dose screen; assay type: cell-based; conditions: Homo sapiens, single dose 10 µM, '-' = no inhibition, read-out: % Growth Inhibition
Procedure: as §1, §2

MALME-3M = test: NCI-60 single-dose screen; assay type: cell-based; conditions: Homo sapiens, single dose 10 µM, '-' = no inhibition, read-out: % Growth Inhibition
Procedure: as §1, §2

BT-549 = test: NCI-60 single-dose screen; assay type: cell-based; conditions: Homo sapiens, single dose 10 µM, '-' = no inhibition, read-out: % Growth Inhibition
Procedure: as §1, §2

HCC-2998 = test: NCI-60 single-dose screen; assay type: cell-based; conditions: Homo sapiens, single dose 10 µM, '-' = no inhibition, read-out: % Growth Inhibition
Procedure: as §1, §2

MOLT-4 = test: NCI-60 single-dose screen; assay type: cell-based; conditions: Homo sapiens, single dose 10 µM, '-' = no inhibition, read-out: % Growth Inhibition
Procedure: as §1, §2

SNB-19 = test: NCI-60 single-dose screen; assay type: cell-based; conditions: Homo sapiens, single dose 10 µM, '-' = no inhibition, read-out: % Growth Inhibition
Procedure: as §1, §2

MCF7 = test: NCI-60 single-dose screen; assay type: cell-based; conditions: Homo sapiens, single dose 10 µM, '-' = no inhibition, read-out: % Growth Inhibition
Procedure: as §1, §2

NCI-H460 = test: NCI-60 single-dose screen; assay type: cell-based; conditions: Homo sapiens, single dose 10 µM, '-' = no inhibition, read-out: % Growth Inhibition
Procedure: as §1, §2

EKVX = test: NCI-60 single-dose screen; assay type: cell-based; conditions: Homo sapiens, single dose 10 µM, '-' = no inhibition, read-out: % Growth Inhibition
Procedure: as §1, §2

NCI-H522 = test: NCI-60 single-dose screen; assay type: cell-based; conditions: Homo sapiens, single dose 10 µM, '-' = no inhibition, read-out: % Growth Inhibition
Procedure: as §1, §2

NCI-H23 = test: NCI-60 single-dose screen; assay type: cell-based; conditions: Homo sapiens, single dose 10 µM, '-' = no inhibition, read-out: % Growth Inhibition
Procedure: as §1, §2

CAKI-1 = test: NCI-60 single-dose screen; assay type: cell-based; conditions: Homo sapiens, single dose 10 µM, '-' = no inhibition, read-out: % Growth Inhibition
Procedure: as §1, §2

MDA-MB231/ATCC = test: NCI-60 single-dose screen; assay type: cell-based; conditions: Homo sapiens, MDA-MB-231, single dose 10 µM, '-' = no inhibition, read-out: % Growth Inhibition
Procedure: as §1, §2

A498 = test: NCI-60 single-dose screen; assay type: cell-based; conditions: Homo sapiens, single dose 10 µM, '-' = no inhibition, read-out: % Growth Inhibition
Procedure: as §1, §2

HCT-15 = test: NCI-60 single-dose screen; assay type: cell-based; conditions: Homo sapiens, single dose 10 µM, '-' = no inhibition, read-out: % Growth Inhibition
Procedure: as §1, §2

LOX IMVI = test: NCI-60 single-dose screen; assay type: cell-based; conditions: Homo sapiens, single dose 10 µM, '-' = no inhibition, read-out: % Growth Inhibition
Procedure: as §1, §2

K-562 = test: NCI-60 single-dose screen; assay type: cell-based; conditions: Homo sapiens, K562, single dose 10 µM, '-' = no inhibition, read-out: % Growth Inhibition
Procedure: as §1, §2

KM12 = test: NCI-60 single-dose screen; assay type: cell-based; conditions: Homo sapiens, single dose 10 µM, '-' = no inhibition, read-out: % Growth Inhibition
Procedure: as §1, §2

SK-MEL-28 = test: NCI-60 single-dose screen; assay type: cell-based; conditions: Homo sapiens, single dose 10 µM, '-' = no inhibition, read-out: % Growth Inhibition
Procedure: as §1, §2

SW-620 = test: NCI-60 single-dose screen; assay type: cell-based; conditions: Homo sapiens, single dose 10 µM, '-' = no inhibition, read-out: % Growth Inhibition
Procedure: as §1, §2

SR = test: NCI-60 single-dose screen; assay type: cell-based; conditions: Homo sapiens, single dose 10 µM, '-' = no inhibition, read-out: % Growth Inhibition
Procedure: as §1, §2

RPMI-8226 = test: NCI-60 single-dose screen; assay type: cell-based; conditions: Homo sapiens, single dose 10 µM, '-' = no inhibition, read-out: % Growth Inhibition
Procedure: as §1, §2

NCI/ADR-RES = test: NCI-60 single-dose screen; assay type: cell-based; conditions: Homo sapiens, single dose 10 µM, '-' = no inhibition, read-out: % Growth Inhibition
Procedure: as §1, §2

SF-268 = test: NCI-60 single-dose screen; assay type: cell-based; conditions: Homo sapiens, single dose 10 µM, '-' = no inhibition, read-out: % Growth Inhibition
Procedure: as §1, §2

PC-3 = test: NCI-60 single-dose screen; assay type: cell-based; conditions: Homo sapiens, single dose 10 µM, '-' = no inhibition, read-out: % Growth Inhibition
Procedure: as §1, §2

TK-10 = test: NCI-60 single-dose screen; assay type: cell-based; conditions: Homo sapiens, single dose 10 µM, '-' = no inhibition, read-out: % Growth Inhibition
Procedure: as §1, §2

OVCAR-8 = test: NCI-60 single-dose screen; assay type: cell-based; conditions: Homo sapiens, single dose 10 µM, '-' = no inhibition, read-out: % Growth Inhibition
Procedure: as §1, §2

SF-295 = test: NCI-60 single-dose screen; assay type: cell-based; conditions: Homo sapiens, single dose 10 µM, '-' = no inhibition, read-out: % Growth Inhibition
Procedure: as §1, §2

HL-60(TB) = test: NCI-60 single-dose screen; assay type: cell-based; conditions: Homo sapiens, single dose 10 µM, '-' = no inhibition, read-out: % Growth Inhibition
Procedure: as §1, §2

MDA-MB-435 = test: NCI-60 single-dose screen; assay type: cell-based; conditions: Homo sapiens, single dose 10 µM, '-' = no inhibition, read-out: % Growth Inhibition
Procedure: as §1, §2

SNB-75 = test: NCI-60 single-dose screen; assay type: cell-based; conditions: Homo sapiens, single dose 10 µM, '-' = no inhibition, read-out: % Growth Inhibition
Procedure: as §1, §2

NCI-H322M = test: NCI-60 single-dose screen; assay type: cell-based; conditions: Homo sapiens, single dose 10 µM, '-' = no inhibition, read-out: % Growth Inhibition
Procedure: as §1, §2

M14 = test: NCI-60 single-dose screen; assay type: cell-based; conditions: Homo sapiens, single dose 10 µM, '-' = no inhibition, read-out: % Growth Inhibition
Procedure: as §1, §2

DU-145 = test: NCI-60 single-dose screen; assay type: cell-based; conditions: Homo sapiens, single dose 10 µM, '-' = no inhibition, read-out: % Growth Inhibition
Procedure: as §1, §2

SF-539 = test: NCI-60 single-dose screen; assay type: cell-based; conditions: Homo sapiens, single dose 10 µM, '-' = no inhibition, read-out: % Growth Inhibition
Procedure: as §1, §2

UO-31 = test: NCI-60 single-dose screen; assay type: cell-based; conditions: Homo sapiens, single dose 10 µM, '-' = no inhibition, read-out: % Growth Inhibition
Procedure: as §1, §2

MDA-MB-468 = test: NCI-60 single-dose screen; assay type: cell-based; conditions: Homo sapiens, single dose 10 µM, '-' = no inhibition, read-out: % Growth Inhibition
Procedure: as §1, §2

RXF 393 = test: NCI-60 single-dose screen; assay type: cell-based; conditions: Homo sapiens, single dose 10 µM, '-' = no inhibition, read-out: % Growth Inhibition
Procedure: as §1, §2

OVCAR-3 = test: NCI-60 single-dose screen; assay type: cell-based; conditions: Homo sapiens, single dose 10 µM, '-' = no inhibition, read-out: % Growth Inhibition
Procedure: as §1, §2

## C=CCSc1nc(-c2ccc(OC)cc2)cc(-c2cccc(OC)c2)n1 [Compound 20, 2-(Allylthio)-6-(3-methoxyphenyl)-4-(4-methoxyphenyl)pyrimidine]
other
  melting point: 258 to 260 °C
UACC-62
  inhibition at 10 µM: 18.8%
ACHN 1
  inhibition at 10 µM: < 0%
HT29
  inhibition at 10 µM: 8.08%
SK-OV-3
  inhibition at 10 µM: < 0%
SN12C
  inhibition at 10 µM: 6.16%
UACC-257
  inhibition at 10 µM: < 0%
IGROV1
  inhibition at 10 µM: < 0%
CCRF-CEM
  inhibition at 10 µM: 3.61%
SK-MEL-2
  inhibition at 10 µM: < 0%
MALME-3M
  inhibition at 10 µM: < 0%
BT-549
  inhibition at 10 µM: < 0%
HCC-2998
  inhibition at 10 µM: 2.37%
MOLT-4
  inhibition at 10 µM: 12.5%
SNB-19
  inhibition at 10 µM: 5.77%
MCF7
  inhibition at 10 µM: 12.5%
NCI-H460
  inhibition at 10 µM: < 0%
EKVX
  inhibition at 10 µM: 4.8%
NCI-H522
  inhibition at 10 µM: 8.49%
NCI-H23
  inhibition at 10 µM: 1.43%
CAKI-1
  inhibition at 10 µM: 7.19%
MDA-MB231/ATCC
  inhibition at 10 µM: < 0%
A498
  inhibition at 10 µM: < 0%
HCT-15
  inhibition at 10 µM: 5.58%
LOX IMVI
  inhibition at 10 µM: 7.36%
K-562
  inhibition at 10 µM: 11.8%
KM12
  inhibition at 10 µM: < 0%
SK-MEL-28
  inhibition at 10 µM: < 0%
SW-620
  inhibition at 10 µM: < 0%
SR
  inhibition at 10 µM: 13%
RPMI-8226
  inhibition at 10 µM: 4.53%
NCI/ADR-RES
  inhibition at 10 µM: < 0%
SF-268
  inhibition at 10 µM: < 0%
PC-3
  inhibition at 10 µM: < 0%
TK-10
  inhibition at 10 µM: < 0%
OVCAR-8
  inhibition at 10 µM: 0.92%
SF-295
  inhibition at 10 µM: 3.19%
HL-60(TB)
  inhibition at 10 µM: 31.3%
MDA-MB-435
  inhibition at 10 µM: 1.82%
SNB-75
  inhibition at 10 µM: < 0%
NCI-H322M
  inhibition at 10 µM: < 0%
M14
  inhibition at 10 µM: 4.9%
DU-145
  inhibition at 10 µM: < 0%
SF-539
  inhibition at 10 µM: < 0%
UO-31
  inhibition at 10 µM: 13.2%
MDA-MB-468
  inhibition at 10 µM: 1.99%
RXF 393
  inhibition at 10 µM: < 0%
OVCAR-3
  inhibition at 10 µM: < 0%
